Earlier results, collected in US6475518B1, “Methods and compositions for treatment of disorders associated with chlamydia and similar bacterial infection” (priority 1998, dated 2002).

Experiments:
[1] = test system: C. pneumoniae; conditions: Gupta S, et al., Circulation 1997
[2] = test system: C. pneumoniae; conditions: Gurfinkel E, et al., Lancet 1997; limited numbers, no prolonged follow-up yet

| SMILES | Clinical benefit of monotherapy [1] | Clinical benefit of sole therapy [2] |
| --- | --- | --- |
| CC[C@H]1OC(=O)[C@H](C)[C@@H](O[C@H]2C[C@@](C)(OC)[C@@H](O)[C@H](C)O2)[C@H](C)[C@@H](O[C@@H]2O[C@H](C)C[C@H](N(C)C)[C@H]2O)[C@](C)(O)C[C@@H](C)CN(C)[C@H](C)[C@@H](O)[C@]1(C)O [azithromycin] | the benefit was not sustained after initial therapy | – |
| CC[C@H]1OC(=O)[C@H](C)[C@@H](O[C@H]2C[C@@](C)(OC)[C@@H](O)[C@H](C)O2)[C@H](C)[C@@H](O[C@@H]2O[C@H](C)C[C@H](N(C)C)[C@H]2O)[C@](C)(O)C[C@@H](C)/C(=N\OCOCCOC)[C@H](C)[C@@H](O)[C@]1(C)O [roxithromycin] | – | a benefit was described |
